Several values for one entry are separate records, joined by “and”; a condition that tells them apart may be missing. Identical values can stand only once. Entries after “also recorded” stand apart in the source; their conditions may differ.

We go through 2 substances from patent US20060073496A1, “Methods of identifying patients at risk of developing encephalitis following immunotherapy for Alzheimer's disease” (priority 2004, published 2006).

One series relates to PDAPP transgenic mouse. Description: PDAPP transgenic mouse efficacy studies (titer needed to lessen neuropathological progression). It counts as in vivo. The source says:
At present, the anti-AN1792 titer necessary to achieve a beneficial therapeutic effect in human AD is unknown. Whereas the PDAPP (platelet-derived growth factor-driven amyloid precursor protein) transgenic mouse develops several AD-like neuropathologies, the progression of pathology in this model may very well take a more aggressive course than in human AD, as the changes occur in months and the expression levels APP/Aβ are several fold higher than in nontransgenic species.

Series [1] in a line: Phase IIa placebo-controlled trial of AN1792 with QS-21 adjuvant: meningoencephalitis and follow-up. It counts as in vivo, human. To be noted: for Meningoencephalitis patients: number of samples in pharmacogenomic study. From the text:
The U.K. trial enrolled about 80 patients and the U.S. trial enrolled about 24 patients with mild to moderate AD for the Phase I trials.
Antibody responders were compared to placebo controls. […] Whole-trial analysis remains ongoing (Gilman, supra).
A total of 372 patients, 172 from the U.S. and 200 from the E.U., were enrolled in the clinical trial. […] Consent was obtained after approval by local institutional review boards.

In another series the test system is PBMCs. The series is described as follows: Gene expression frequency (Affymetrix U133A) in PBMCs cultured overnight with AN1792 and immune adjuvant cocktail; association with encephalitis, IgG, IgM response, ApoE4 by ANOVA and GeneCluster; ratio to control culture. Particulars: 13 genes of Table 17, PBMCs cultured overnight, AN1792 10 μg/ml. Format: cell-based, human. From the text:
Consent to the pharmacogenomic study was optional and obtained after approval by local institutional review boards in the U.S. (E.U. patients were not included in the pharmacogenomic study). Blood was collected from patients in the U.S. at the screening visit and was shipped overnight at room temperature to the Pharmacogenomic Laboratory in Andover, Mass. For each sample, the peripheral blood mononuclear cell (PBMC) fraction was purified by CPT fractionation, as described below, and 2×10^6 of these cells (the baseline sample, i.e., the first daughter sample for baseline measurements) were snap frozen; these represent cells that were not subject to in vitro culture (see. Example 1.1.3.1). The remaining cells were divided into four equal aliquots and cultured in vitro overnight in conditions described below. Cells were then harvested and snap frozen. […] The hypothesis behind this reasoning was that immunotherapeutic responsiveness may reflect a state of “preexisting readiness” to respond to AN1792, and this state may be reflected in the gene expression profile of PBMCs prior to immunotherapy. Accordingly, both AN1792-stimulated and control cultures were set up for each sample. Total RNA was purified from each sample, and RNA expression levels of each of 22,000 sequences were assayed, as described below. […]

For series [2] the following is noted: cited from earlier work.
In series [3] the test system is transgenic mouse models of cognitive impairment and amyloid plaque-associated CNS pathology. Particulars: cited from earlier work.
Series [4] in a line: Phase I human trials of AN1792 (safety, tolerability, antibody responsiveness). Format: in vivo. Particulars: Phase I study. From the text: The U.K. trial enrolled about 80 patients and the U.S. trial enrolled about 24 patients with mild to moderate AD for the Phase I trials. […] Four of the participants developed signs of meningoencephalitis at an early phase of the clinical trial, and the trial was suspended. […] At the time the treatments were discontinued, the maximum number of immunization received was three (by 24 patients), with the majority of patients receiving two immunizations (274 patients) and two patients receiving one immunization. Ultimately, meningoencephalitis was reported in 18 of 300 immunized patients (Orgogozo (2003) supra).
Predictors of response were sought because the incidence of antibody responsiveness in the Phase I study was relatively low (48%), an incidence that would have more than doubled the number of patients required in a Phase II evaluation of efficacy (as measured by cognitive function) associated with anti-AN1792 antibody response. […] Consequently, blood samples were obtained from 123 treated U.S. patients (five of which developed meningoencephalitis) and 30 patients in the placebo group. Simultaneous analysis of the expression levels of approximately 22,000 sequences in each preimmune blood sample obtained from all consenting subjects was performed using the Affymetrix U133A GeneChip®. […]

The conditions of series [5]: cited from earlier work. The source holds these as a separate data set.
The next series has as its system AN1792. Description: Postimmunization maximum anti-AN1792 IgG and IgM titer / response group of treated patients. Format: in vivo, human. From the text:
Relevant clinical data received from StatProbe, Inc. (Ann Arbor, Mich.) (pertaining to treatment group, maximum IgG titer for all visits, maximum IgM titer for all visits, ApoE4 type, and encephalitis status), along with demographic data and treatment group, were merged with the gene expression data by donor identification number (the randomization number that was assigned to each patient in the study).
The pharmacogenomic supplemental statistical analysis plan of this Example 1 defines IgG responders as having a maximum titer≧2200 at any time point. The maximum titer of partial IgG responders was >200<2200, and of nonresponders was ≦200. Patients with an IgM titer>100 at any time point are defined as IgM responders.
(Data from patients with maximum titers between 200 and 2200 were not used in the identification of statistically significant associations, but were analyzed once the statistical programs had identified genes of interest.)
Relevant clinical data pertaining to treatment group, maximum IgG titer for all visits, maximum IgM titer for all visits, encephalitis status, and demographic data were received from StatProbe, Inc. (Ann Arbor, Mich.). The clinical data were merged with the gene expression data by donor identification number.
Subjects were assigned to response groups based on postimmunization maximum titer during follow-up. For both IgM and IgG the response groups were: 1) nonresponders, (titer<200); 2) partial responders (200≦titer<2,200); and 3) responders (titer≧2200).

For series [6] the following is noted: rabbit, single IM injection, tritium-labeled QS-21; cited from earlier work.
In series [7] the test system is B and T cell effector function. Particulars: QS-21 adjuvanted immunotherapeutics in mice, rabbits and monkeys; cited from earlier work.
The conditions of series [8]: cited from earlier work. This is another data set of the same source.
The mark [9] stands for this setting: immunization with AN1792, transgenic mice.
[10] abbreviates: individual AN1792-treated patients with r^2 outlier samples (33, 22, 316, 765).
The mark [11] stands for this setting: individual treated patients with post-CPT neutrophils >20%, one line per patient (17, 23, 36, 44, 271, 756), listed as Immunotherapy.
Where [12] appears, read: number of samples in pharmacogenomic study, Female, of 57 treated.
The mark [13] stands for this setting: number of samples in pharmacogenomic study, Male, of 66 treated.
Setting [14] is: number of samples in pharmacogenomic study, Total, of 123 treated.

As to “AN1792: a peptide immunogen consisting of Aβ1-42, the section of amyloid recognized as a major component of AD-related plaques”, the “lowest titers that resulted in lessening of neuropathological progression” value in the series with PDAPP transgenic mouse is on record as 1-2,000. For the same substance, in series [1] (E.U. patients), the “number of patients who developed meningoencephalitis” value came out at 12. Further, in series [1] (U.S. patients), the “number of patients who developed meningoencephalitis” value is on record as 6. The Meningoencephalitis patients in series [1] (Female) came out at 5. Moreover, the Meningoencephalitis patients in series [1] (Total) is listed as 5. Moreover, the “effect of AN1792 stimulation on gene expression frequency (AN1792-stimulated versus control culture)” value with PBMCs is reported as “decrease in gene expression frequency”. Moreover, in [2] (antibody responders compared to placebo controls, follow-up), the “CSF tau levels and battery of neuropsychological tests” value is on record as “gave results favoring patients with a positive IgG titer”. Further, in series [2] (in vivo), the “meningoencephalitis reported, patients of immunized patients” value is recorded as 18 of 300. Besides, the “β-amyloid plaques in brain at autopsy” value in [2] (one participant who died of causes unrelated to treatment) is listed as “significant areas of the brain lacked the β-amyloid plaques”. For the same substance, in [3] (setting [9]), the cognitive function result is reported as “improved cognitive function”; the “development of AD-like amyloid plaques, neuritic dystrophy, and gliosis” value was “inhibited the development of AD-like amyloid plaques, neuritic dystrophy, and gliosis”. In addition, in [3] (mice treated with AN1792 versus placebo), the “performance in memory tests” value is listed as “improved performance in memory tests”. The “incidence of antibody responsiveness” value in series [4] came to 48%. In series [5] (Phase I trials, mild to moderate AD), the “development of amyloid antibodies” value is recorded as “a portion of the participants developed amyloid antibodies”. Further, the “tolerability in human recipients” value in series [5] (in vivo) is recorded as “well tolerated”. In the series on AN1792 (setting [10]), the IgG response group result is on record as “Nonresponder (of nonresponders was ≦200); also recorded: IgG responder (IgG responders as having a maximum titer≧2200 at any time point)” and the IgM response group result is reported as “IgM responder (maximum IgM titer>100 (responders)); also recorded: Nonresponder (maximum IgM titer<100 (nonresponders))”. For the same substance, in the series on AN1792 (setting [11]), the “Maximum IgG Titer” value is 50 (3×) and 4111 and 126 and 172; the “Maximum IgM Titer” value is 13275 and 957 and 28554. Also, in the series on AN1792 (setting [12]), the “Treated IgG nonresponders” value was 28, the “Treated IgG partial responders” value was found to be 16, the “Treated IgG responders” value is reported as 13 and the “Treated IgM nonresponders” value was 16. Moreover, the “Treated IgM partial responders” value in the series on AN1792 (setting [12]) is listed as 21. For the same substance, in the series on AN1792 (setting [13]), the “Treated IgG nonresponders” value is recorded as 42, the “Treated IgG partial responders” value was found to be 12, the “Treated IgG responders” value came out at 12 and the “Treated IgM nonresponders” value stood at 28. The “Treated IgM partial responders” value in the series on AN1792 (setting [13]) is recorded as 18. For the same substance, in the series with AN1792 (setting [14]), the “Treated IgG nonresponders” value is listed as 70, the “Treated IgG partial responders” value was 28, the “Treated IgM nonresponders” value is recorded as 44 and the “Treated IgM partial responders” value is reported as 39. In the series on AN1792 (setting [14]), the “Treated IgM responders” value stood at 40. Besides, the “incidence of responsiveness (IgG titer>200), patients of treated patients” value with AN1792 (treated U.S. patients of the pharmacogenomic study, Example 2) is reported as 53 of 123.
On to QS-21, for which, in series [6], the distribution result is given as “highly concentrated in the lymph nodes draining the injection area” and the excretion entry is recorded as “Excretion occurs primarily through the kidneys”. In addition, the “effect on immune effector function” value in series [7] is “improvement in B and T cell effector function”. Further, the “white blood cell counts and creatinine kinase” value in series [8] (rabbit toxicity studies) is “Slight alterations in white blood cell counts (leukocytosis and leukopenia) and creatinine kinase”. In series [8] (rabbit, single or multiple injections, QS-21 alone or combined with antigens), the organ toxicity result was “no significant organ toxicity”.
